Earlier results on 14 molecules are cited in patent US6943197B2, “Topical administration of pharmacologically active bases in the treatment of inflammatory dermatoses” (priority 2002, dated 2005).

Structures are written as SMILES. Like-named read-outs stand apart in the source and are kept apart here.

The conditions of data set [1]: for pH of Aqueous Solution (alkalinity in words): no concentration, result in words.
For data set [2] the following is noted: forms Ca(OH)2.

As for `O.O.O.O.O.O.O.O.O.O.O.O.O=P([O-])([O-])[O-].[Na+].[Na+].[Na+]` [Sodium phosphate, tribasic dodecahydrate], the “pH of Aqueous Solution” value in data set [1] (1.0% (1%)) is recorded as 11.9 (1.0%).
On to `O=P([O-])([O-])O.[K+].[K+]` [Potassium phosphate, dibasic], for which the “pH of Aqueous Solution (alkalinity in words)” value in data set [1] is recorded as “Aqueous solution is slightly”.
In the case of `[O]=[Ca]` [Calcium oxide], the Solubility in water entry in data set [2] was “Soluble in water, Form”.
As for `N.N.O=P(O)(O)O` [Ammonium phosphate, dibasic], in data set [1] (concentration not given), the “pH of Aqueous Solution” value is listed as “˜8”.
`O=C([O-])[O-].[Na+].[Na+]` [Sodium carbonate anhydrous]: the “pH of Aqueous Solution” value in data set [1] (concentration not given) was “˜11.6”.
In the case of `O.O.O=P([O-])([O-])O.[Na+].[Na+]` [Sodium phosphate, dibasic, dihydrate], the “pH of Aqueous Solution” value in data set [1] (concentration not given) is on record as “˜9.5”.
For the molecule `O.O.O.O.O.O.O.O=P([O-])([O-])O.[Na+].[Na+]` [Sodium phosphate, dibasic, heptahydrate], the “pH of Aqueous Solution” value in data set [1] (concentration not given) is on record as “˜9.5”.
For the molecule `O=C([O-])CC(O)(CC(=O)[O-])C(=O)[O-].[K+].[K+].[K+]` [Potassium citrate], in data set [1] (concentration not given), the “pH of Aqueous Solution” value was “˜8.5”.
As to `[O]=[Mg]` [Magnesium oxide], the “pH of Aqueous Solution” value in data set [1] (saturated solution in water) is listed as 10.3.
With `O=P([O-])([O-])O.[Na+].[Na+]` [Sodium phosphate, dibasic], the “pH of Aqueous Solution” value in data set [1] (concentration not given) is on record as “˜9.5”.
As for `O=B[O-].[Na+]` [Sodium metaborate], the “pH of Aqueous Solution (alkalinity in words)” value in data set [1] is reported as “Strongly alkaline”.
As to `CC(=O)[O-].O.O.O.[Na+]` [Sodium acetate, tribydrate], in data set [1] (0.1 N), the “pH of Aqueous Solution” value is given as 8.9 (0.1 N).
As for `CC(=O)[O-].[Na+]` [Sodium acetate, anhydrous], the “pH of Aqueous Solution” value in data set [1] (0.1 N) is “˜8.9 (0.1 N)”.
Take `O.O.O.O.O.O.O.O.O.O.O.O.O=P([O-])([O-])O.[Na+].[Na+]` [Sodium phosphate, dibasic, dodecahydrate]: the “pH of Aqueous Solution” value in data set [1] (concentration not given) is recorded as “˜9.5”.
